The first assay addresses human SCN9A (Nav 1.7) (Homo sapiens, UniProt Q15858). The experiment in a line: Measurement of Na ion current (Nav 1.7) by automated patch clamp assay in cells stably-expressing human SCN9A. The settings on record: compound concentration 10 μmol/L; holding potential inactivating 50% Nav 1.7 channel (around −60 mV); read-out: Inhibitory rate (%) of Na ion current. It counts as cell-based. On the procedure:
Measurement of Na Ion Current in Voltage-Dependent Na Channel Gene Expressed Cell Nav 1.7 current was measured by automated patch clamp assay using cells stably-expressing human SCN9A. Cells Stably-expressing Human SCN9A Tetracycline-induced cells stably-expressing SCN9A were obtained from ChanTest Corporation. […] Next day, the Na ion current was measured by automated patch clamp assay. Electrophysiologic Measurement of Na Ion Current The Na ion current was measured by automated patch clamp assay using the following extracellular solution and intracellular solution. […] The control of the stimulating pulse and the data acquisition were carried out using EPC10 amplifier and Patch Master Software (HEKA). Data were sampled at 10 kHz, and low-pass filtered at 3 kHz. All the measurements were carried out at room temperature. […] The inhibitory rate of the Na ion current by the test compounds was calculated according to the following calculating formula with the peak current value generated by the depolarizing pulse. […] The inhibitory rate of Na ion current by each Example Compound was evaluated.
Sequence of human SCN9A (Nav 1.7) (Q15858 whole entry): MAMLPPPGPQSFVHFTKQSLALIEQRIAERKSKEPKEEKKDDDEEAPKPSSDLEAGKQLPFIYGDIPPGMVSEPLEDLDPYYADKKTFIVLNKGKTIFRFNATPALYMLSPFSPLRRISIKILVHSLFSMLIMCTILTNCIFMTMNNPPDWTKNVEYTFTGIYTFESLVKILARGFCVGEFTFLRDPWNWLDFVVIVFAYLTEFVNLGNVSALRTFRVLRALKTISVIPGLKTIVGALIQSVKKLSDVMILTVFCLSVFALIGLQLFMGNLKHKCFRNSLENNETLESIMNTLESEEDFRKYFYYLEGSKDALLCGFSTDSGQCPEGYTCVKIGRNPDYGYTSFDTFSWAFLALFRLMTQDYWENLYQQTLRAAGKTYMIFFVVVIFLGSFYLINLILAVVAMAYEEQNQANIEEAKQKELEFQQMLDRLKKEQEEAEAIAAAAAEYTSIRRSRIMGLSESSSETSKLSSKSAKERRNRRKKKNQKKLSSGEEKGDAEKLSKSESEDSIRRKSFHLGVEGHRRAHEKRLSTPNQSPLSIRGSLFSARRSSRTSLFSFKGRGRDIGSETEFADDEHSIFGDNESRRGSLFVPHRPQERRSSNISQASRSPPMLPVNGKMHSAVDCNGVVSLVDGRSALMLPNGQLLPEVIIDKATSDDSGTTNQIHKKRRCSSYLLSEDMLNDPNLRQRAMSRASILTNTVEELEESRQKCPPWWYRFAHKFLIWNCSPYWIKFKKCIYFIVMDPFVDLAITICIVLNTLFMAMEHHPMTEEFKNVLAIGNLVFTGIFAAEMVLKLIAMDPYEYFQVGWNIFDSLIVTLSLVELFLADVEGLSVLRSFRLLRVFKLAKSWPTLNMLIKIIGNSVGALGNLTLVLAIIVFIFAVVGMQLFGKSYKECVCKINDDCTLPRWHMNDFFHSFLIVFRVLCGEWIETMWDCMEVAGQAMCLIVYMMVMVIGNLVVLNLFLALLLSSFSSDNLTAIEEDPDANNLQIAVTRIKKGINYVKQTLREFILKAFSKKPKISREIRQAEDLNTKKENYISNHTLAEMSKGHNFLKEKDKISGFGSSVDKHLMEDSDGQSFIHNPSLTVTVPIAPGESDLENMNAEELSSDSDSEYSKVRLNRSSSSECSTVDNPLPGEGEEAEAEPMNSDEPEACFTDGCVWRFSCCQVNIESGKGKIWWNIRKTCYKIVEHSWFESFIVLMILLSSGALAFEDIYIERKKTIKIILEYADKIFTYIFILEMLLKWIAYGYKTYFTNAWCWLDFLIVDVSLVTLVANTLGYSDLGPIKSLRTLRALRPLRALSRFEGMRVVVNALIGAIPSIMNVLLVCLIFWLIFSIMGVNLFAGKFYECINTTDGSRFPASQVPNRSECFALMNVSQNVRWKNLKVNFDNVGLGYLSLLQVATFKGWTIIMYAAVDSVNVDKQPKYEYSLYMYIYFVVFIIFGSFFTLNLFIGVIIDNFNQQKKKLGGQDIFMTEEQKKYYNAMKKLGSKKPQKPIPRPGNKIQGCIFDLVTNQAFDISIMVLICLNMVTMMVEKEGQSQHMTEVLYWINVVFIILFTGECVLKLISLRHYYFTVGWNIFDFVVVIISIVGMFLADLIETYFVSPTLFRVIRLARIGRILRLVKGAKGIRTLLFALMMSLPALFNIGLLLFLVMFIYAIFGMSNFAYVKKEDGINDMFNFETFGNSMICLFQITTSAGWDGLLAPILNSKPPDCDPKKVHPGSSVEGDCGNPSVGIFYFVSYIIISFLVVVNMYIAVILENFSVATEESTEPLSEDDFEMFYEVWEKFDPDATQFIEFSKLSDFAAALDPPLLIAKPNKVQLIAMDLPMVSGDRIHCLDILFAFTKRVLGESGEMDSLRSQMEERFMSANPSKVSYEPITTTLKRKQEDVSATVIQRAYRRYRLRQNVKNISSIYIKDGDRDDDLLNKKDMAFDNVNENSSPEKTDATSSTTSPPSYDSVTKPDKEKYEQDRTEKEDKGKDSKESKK
Turning to `Fc1ccc(Oc2ccc3ncn(CC4CCCO4)c3c2)cc1` (stereo not drawn) [Example 2, 6-(4-fluorophenoxy)-1-(tetrahydrofuran-2-ylmethyl)-1H-benzimidazole], the inhibition at 10 µM was found to be 85%.

With `CC(C)OCCn1cnc2ccc(Oc3ccc(F)cc3)cc21` [Example 3, 6-(4-fluorophenoxy)-1-[2-(propan-2-yloxy)ethyl]-1H-benzimidazole], the inhibition at 10 µM was 65%.

On to `Fc1ccc(Oc2ccc3ncn(CCOC4CCCC4)c3c2)cc1` [Example 4, 1-[2-(cyclopentyloxy)ethyl]-6-(4-fluorophenoxy)-1H-benzimidazole], for which the inhibition at 10 µM worked out at 52%.

`CC(C)(O)Cn1cnc2ccc(-c3ccc(F)cc3)cc21` [Example 5, 1-[6-(4-fluorophenyl)-1H-benzimidazol-1-yl]-2-methylpropan-2-ol]: the inhibition at 10 µM stood at 39%.

For the compound `Fc1ccc(-c2ccc3ncn(CC4CCCO4)c3c2)cc1` (stereo not drawn) [Example 6], the inhibition at 10 µM amounted to 41%.

On to `FC(F)(F)c1ccc(-c2ccc3ncn(CC4CCCO4)c3c2)cc1` (stereo not drawn) [Example 7, 1-(tetrahydrofuran-2-ylmethyl)-6-[4-(trifluoromethyl)phenyl]-1H-benzimidazole], for which the inhibition at 10 µM was 67%.

In the case of `FC(F)(F)c1ccc(-c2ccc3ncn(CC4CCCO4)c3c2)nc1` (stereo not drawn) [Example 8], the inhibition at 10 µM is 32%.

For `CC(C)(O)Cn1cnc2ccc(-c3ccc(C(F)(F)F)cc3)cc21` [Example 9, 2-methyl-1-{6-[4-(trifluoromethyl)phenyl]-1H-benzimidazol-1-yl}propan-2-ol], the inhibition at 10 µM was 77%.

For `FC(F)(F)c1ccc(-c2ccc3ncn(CCOC4CCCC4)c3c2)cc1` [Example 10, 1-[2-(cyclopentyloxy)ethyl]-6-[4-(trifluoromethyl)phenyl]-1H-benzimidazole], the inhibition at 10 µM was determined as 52%.

On to `CC(C)(O)Cn1cnc2ccc(-c3ccc(C(F)(F)F)cn3)cc21` [Example 11, 2-methyl-1-{6-[5-(trifluoromethyl)pyridin-2-yl]-1H-benzimidazol-1-yl}propan-2-ol], for which the inhibition at 10 µM came to 75%.

As to `FC(F)(F)c1ccc(-c2ccc3ncn(CCOC4CCCC4)c3c2)nc1` [Example 12, 1-[2-(cyclopentyloxy)ethyl]-6-[5-(trifluoromethyl)pyridin-2-yl]-1H-benzimidazole], the inhibition at 10 µM turned out to be 58%.

As for `CC(C)(O)Cn1cnc2ccc(Oc3ccccc3)cc21` [Example 13, 2-methyl-1-(6-phenoxy-1H-benzimidazol-1-yl)propan-2-ol], the inhibition at 10 µM was found to be 25%.

On to `CC(C)(O)Cn1cnc2ccc(Oc3ccc(C(F)(F)F)cc3)cc21` [Example 15, 2-methyl-1-{6-[4-(trifluoromethyl)phenoxy]-1H-benzimidazol-1-yl}propan-2-ol], for which the inhibition at 10 µM worked out at 57%.

Regarding `CC(C)(O)Cn1cnc2ccc(Oc3ccc(OC(F)(F)F)cc3)cc21` [Example 22, 2-methyl-1-{6-[4-(trifluoromethoxy)phenoxy]-1H-benzimidazol-1-yl}propan-2-ol], the inhibition at 10 µM was determined as 73%.

For `Cc1ccc(Oc2ccc3ncn(CC(C)(C)O)c3c2)cn1` [Example 24, 2-methyl-1-{6-[(6-methylpyridin-3-yl)oxy]-1H-benzimidazol-1-yl}propan-2-ol], the inhibition at 10 µM was 56%.

As for `CC(C)(O)Cn1cnc2ccc(Oc3ccc(C(F)(F)F)nc3)cc21` [Example 25, 2-methyl-1-(6-{[6-(trifluoromethyl)pyridin-3-yl]oxy}-1H-benzimidazol-1-yl)propan-2-ol], the inhibition at 10 µM came to 72%.

In the case of `CC(C)(O)Cn1cnc2cc(Oc3cccc(C(F)(F)F)n3)ccc21` [Example 43, 2-methyl-1-(5-{[6-(trifluoromethyl)pyridin-2-yl]oxy}-1H-benzimidazol-1-yl)propan-2-ol], the inhibition at 10 µM was determined as 20%.

For the compound `CC(C)(O)Cn1cnc2cc(Oc3cnc(C(F)(F)F)cn3)ccc21` [Example 51, 2-methyl-1-(5-{[5-(trifluoromethyl)pyrazin-2-yl]oxy}-1H-benzimidazol-1-yl)propan-2-ol], the inhibition at 10 µM is 44%.

Regarding `CC(C)(O)Cn1cnc2cc(Oc3ncc(C(F)(F)F)cn3)ccc21` [Example 52, 2-methyl-1-(5-{[5-(trifluoromethyl)pyrimidin-2-yl]oxy}-1H-benzimidazol-1-yl)propan-2-ol], the inhibition at 10 µM stood at 46%.

`CC(C)(O)Cn1cnc2cc(Oc3ncc(C(F)(F)F)cc3F)ccc21` [Example 53, 1-(5-{[3-fluoro-5-(trifluoromethyl)pyridin-2-yl]oxy}-1H-benzimidazol-1-yl)-2-methylpropan-2-ol]: the inhibition at 10 µM turned out to be 69%.

As for `CC(C)(O)Cn1cnc2cc(Oc3ncc(Cl)cc3F)ccc21` [Example 54, 1-{5-[(5-chloro-3-fluoropyridin-2-yl)oxy]-1H-benzimidazol-1-yl}-2-methylpropan-2-ol], the inhibition at 10 µM turned out to be 62%.

On to `OC1(Cn2cnc3ccc(Oc4ccc(C(F)(F)F)cn4)cc32)CCOCC1` [Example 55], for which the inhibition at 10 µM is 37%.

Take `OC1(Cn2cnc3ccc(Oc4ccc(C(F)(F)F)cn4)cc32)COC1` [Example 56, 3-[(6-{[5-(trifluoromethyl)pyridin-2-yl]oxy}-1H-benzimidazol-1-yl)methyl]oxetan-3-ol]: the inhibition at 10 µM is 45%.

With `OC1(Cn2cnc3ccc(Oc4ccc(C(F)(F)F)cn4)cc32)CC1` [Example 57], the inhibition at 10 µM was 47%.

Take `OC1(Cn2cnc3ccc(Oc4ccc(C(F)(F)F)cn4)cc32)CCC1` [Example 58, 1-[(6-{[5-(trifluoromethyl)pyridin-2-yl]oxy}-1H-benzimidazol-1-yl)methyl]cyclobutanol]: the inhibition at 10 µM was 48%.

As to `CC(C)(O)Cn1cnc2ccc(Oc3ccc(CC(F)(F)F)cn3)cc21` [Example 60, 2-methyl-1-(6-{[5-(2,2,2-trifluoroethyl)pyridin-2-yl]oxy}-1H-benzimidazol-1-yl)propan-2-ol], the inhibition at 10 µM was 52%.

In the case of `OC1(Cn2cnc3ccc(Oc4ccc(F)cc4)cc32)COC1` [Example 90], the inhibition at 10 µM was found to be 15%.

As for `OC1(Cn2cnc3ccc(Oc4ccc(Cl)cc4)cc32)COC1` [Example 91], the inhibition at 10 µM amounted to 24%.

In the case of `Cc1ccc(Oc2ccc3ncn(CC4(O)COC4)c3c2)cc1` [Example 92], the inhibition at 10 µM amounted to 16%.

For `OC1(Cn2cnc3ccc(Oc4ccc(C(F)(F)F)cc4)cc32)COC1` [Example 93, 3-({6-[4-(trifluoromethyl)phenoxy]-1H-benzimidazol-1-yl}methyl)oxetan-3-ol], the inhibition at 10 µM is 42%.

`CC(C)(O)CCn1cnc2ccc(Oc3ccc(OC(F)(F)F)cc3)cc21` [Example 97]: the inhibition at 10 µM stood at 83%.

Turning to `CC(C)(O)CCn1cnc2ccc(Oc3cccc(F)c3)cc21` [Example 98], the inhibition at 10 µM is 25%.

As for `Cc1ccc(Oc2ccc3ncn(CCC(C)(C)O)c3c2)cc1` [Example 99], the inhibition at 10 µM stood at 12%.

`CC(C)(O)CCn1cnc2ccc(Oc3ccc(F)cc3)cc21` [Example 100]: the inhibition at 10 µM was 10%.

Turning to `CC(C)(O)CCn1cnc2ccc(Oc3ccc(C(F)(F)F)cc3)cc21` [Example 102], the inhibition at 10 µM stood at 59%.

As to `CC(C)(O)CCn1cnc2ccc(Oc3ccc(C(F)(F)F)nc3)cc21` [Example 103], the inhibition at 10 µM is 10%.

As to `CC(C)(O)Cn1cnc2ccc(Oc3ccc(CC(F)(F)F)cc3)cc21` [Example 104], the inhibition at 10 µM worked out at 57%.

On to `OC1(Cn2cnc3ccc(Oc4ccc(CC(F)(F)F)cc4)cc32)COC1` [Example 105], for which the inhibition at 10 µM came to 38%.

As for `OC1(Cn2cnc3ccc(Oc4ccc(Cl)cc4Cl)cc32)COC1` [Example 106], the inhibition at 10 µM was determined as 50%.

For the compound `OC1(Cn2cnc3ccc(Oc4ccc(Cl)c(Cl)c4)cc32)COC1` [Example 107], the inhibition at 10 µM amounted to 51%.

`OC1(Cn2cnc3ccc(Oc4ccc(Cl)cc4F)cc32)COC1` [Example 109]: the inhibition at 10 µM worked out at 30%.

`OC1(Cn2cnc3ccc(Oc4ccc(F)cc4Cl)cc32)COC1` [Example 110, 3-{[6-(2-chloro-4-fluorophenoxy)-1H-benzimidazol-1-yl]methyl}oxetan-3-ol]: the inhibition at 10 µM was found to be 58%.

In the case of `OC1(Cn2cnc3ccc(Oc4cc(Cl)cc(Cl)c4)cc32)COC1` [Example 111], the inhibition at 10 µM came out at 52%.

For `OC1(Cn2cnc3ccc(Oc4cc(Cl)ccc4Cl)cc32)COC1` [Example 112], the inhibition at 10 µM is 39%.

Turning to `C[C@]1(O)C[C@@H](n2cnc3ccc(Oc4ccc(C(F)(F)F)cc4)cc32)C1` [Example 113], the inhibition at 10 µM worked out at 68%.

Take `OC1(Cn2cnc3ccc(Oc4ccc5scnc5c4)cc32)COC1` [Example 114]: the inhibition at 10 µM came out at 26%.

With `OC1(Cn2cnc3ccc(Oc4ccc5ncccc5c4)cc32)COC1` [Example 115], the inhibition at 10 µM turned out to be 31%.

With `CC(C)(CO)n1cnc2ccc(Oc3ccc(C(F)(F)F)cn3)cc21` [Example 116], the inhibition at 10 µM turned out to be 33%.

The same assay, now with this note: compound concentration 100 μmol/L (footnoted examples); holding potential inactivating 50% Nav 1.7 channel (around −60 mV); read-out: Inhibitory rate (%) of Na ion current.
As to `OC1(Cn2cnc3ccc(Oc4cccc(F)c4)cc32)COC1` [Example 95], the inhibition at 100 µM stood at 66%.

Take `OC1(Cn2cnc3ccc(Oc4ccc(C(F)(F)F)nc4)cc32)COC1` [Example 96]: the inhibition at 100 µM is 32%.

Still in this assay, the particulars now being: read-out: Inhibitory rate (%) of Na ion current.
For `Cc1ccc(Oc2ccc3ncn(CC(C)(C)O)c3c2)cc1` [Example 14, 2-methyl-1-[6-(4-methylphenoxy)-1H-benzimidazol-1-yl]propan-2-ol], the inhibition at 10 µM is 68%.

(Values after patent US10407395B2, “Benzimidazole compound and medical use thereof” (Sumitomo Dainippon Pharma Co., Ltd., priority 2015, dated 2019).)
